US12516331B2, “Monocyte-specific aptamers and uses thereof for enhancing drug delivery to cancer” (Academia Sinica, priority 2020, dated 2026)

What was measured:
[1] = tested on: RAW264.7 (murine monocyte cell line); test: Flow cytometry binding of Cy5-labeled aptamers to monocyte cell line RAW264.7; set-up: species or system mouse; settings: RAW264.7 cells, 200 nM Cy5-aptamer, 4° C., 30 minutes, flow cytometry (FIG. 2A)
Description: (§1) To confirm that J10, but not S2, was capable of binding selectively to monocytes in vitro, the J10 and S2 aptamers were first labeled with the fluorescent labeling reagent Cy5 ((2Z)-2-[(2E,4E)-5-[1-(5-Carboxypentyl)-3,3-dimethyl-5-sulfoindol-1-ium-2-yl]penta-2,4-dienylidene]-1-ethyl-3,3-dimethylindole-5-sulfonate) and then incubated with monocyte cells lines RAW264.7 and J774A.1. Cy5-labeled J10 and S2 were also incubated with the mouse endothelial cell line SVEC which was used as a negative selection. In brief, 5×10^5 of each selected cell line was pre-mixed in a bloc king buffer (20% FBS and 10% salmon sperm DNA in PBS) at 4° C. for 30 minutes. After that, the cells were reacted with 200 nM Cy5-J10 or Cy5-S2 in the blocking buffer at 4° C. for 30 minutes. Finally, the sample was subjected to flow cytometry using standard protocols known in the art. […] Together, the data in FIGS. 2A and 2B confirmed that J10, but not S2, was capable of binding selectively to monocytes in vitro and being carried to the injured site in vivo.

[2] = tested on: J774A.1 (murine monocyte cell line); test: Flow cytometry binding of Cy5-labeled aptamers to monocyte cell line J774A.1; set-up: species or system mouse; settings: J774A.1 cells, 200 nM Cy5-aptamer, 4° C., 30 minutes, flow cytometry (FIG. 2A)
Description: as §1

[3] = tested on: mouse endothelial cell line SVEC; test: Flow cytometry binding of Cy5-labeled aptamers to endothelial cell line SVEC (negative selection); settings: 200 nM Cy5-aptamer, 4° C., 30 minutes, flow cytometry (FIG. 2A)
Description: as §1

[4] = tested on: human monocyte cell line THP-1; test: Flow cytometry binding of Cy5-labeled aptamers to human monocyte cell line THP-1; settings: THP-1 cells, 200 nM Cy5-aptamer, 4° C., 30 minutes (FIG. 3)
Description: (§2) To confirm that J10 binding, but not S2 binding, was selective to human monocytes in vitro, Cy5-labeled J10 and S2 were also incubated with the human monocyte cell lines, THP-1 and U937, and human umbilical cord endothelial cells (HUVEC), which were used as a negative control. In brief, 5×10^5 of each selected cell line was pre-mixed in a bloc king buffer (20% FBS and 10% salmon sperm DNA in PBS) at 4° C. for 30 minutes. After that, the cells were reacted with 200 nM Cy5-J10 or Cy5-S2 in the blocking buffer at 4° C. for 30 minutes. Finally, the sample was subjected to flow cytometry using standard protocols known in the art.

[5] = tested on: human monocyte cell line U937; test: Flow cytometry binding of Cy5-labeled aptamers to human monocyte cell line U937; settings: U937 cells, 200 nM Cy5-aptamer, 4° C., 30 minutes (FIG. 3)
Description: as §2

[6] = PCR analysis of aptamer targeting to the injured site in the mouse cardiac ischemia reperfusion (I/R) model; assay type: in vivo; settings: intravenous injection, mouse cardiac I/R model (FIG. 2B)
Text: FIGS. 2A-2D include diagrams depicting the specificity of J10 aptamer to monocytes. FIG. 2A: depicts a graph showing the amount of Cy5-labeled J10 aptamer and Cy5-labeled S2 aptamer in the monocyte cells lines RAW264.7 and J774A.1 and the mouse endothelial cell line SVEC as measured by flow cytometry. Mouse endothelial cell line SVEC was used as a negative selection. The S2 aptamer had the same nucleotide composition as J10 aptamer but randomized the sequence. Two-way ANOVA with a Tukey adjustment was used to analyze the data where *P<0.05; **P<0.01; ***P<0.001 were significant. FIG. 2B: Top panel depicts images showing the accumulating amount of J10 and S2 aptamers in infarct area of the injured hearts as measured by PCR. Bottom panel depicts quantification of PCR results. Unpaired Student's t-test was used to analyze the data where *P<0.05; **P<0.01; ***P<0.001 were significant. FIG. 2C: depicts images showing in vivo targeting of in vivo targeting of S2 aptamer-QD655 (top panel) J10 aptamer-QD655 (bottom panel) to circulating CX3CR1-GFP^+ monocytes via intravital imaging. The aptamer was conjugated with quantum dots QD655. Scale bars shown represent 100 μm. FIG. 2D: depicts a graph showing ex vivo targeting of J10 aptamer against circulating monocytes examined with flow cytometry to analyse the amount of Cy5-J10 associated with CD45^+ and CD11b^+ cells isolated from peripheral blood. […]

[7] = tested on: circulating myeloid cells (CD45+ CD11b+ cells); test: Ex vivo binding of Cy5-aptamer to peripheral blood cells by flow cytometry; set-up: species or system mouse; settings: peripheral blood of healthy mice, 2 μM Cy5-Apt, 30 minutes at 4° C. (FIG. 2D)
Description: To test ex vivo binding specificity and affinity, 100 μL peripheral blood from healthy mice was withdrawn via the submandibular vein, collected in EDTA-containing anticoagulant tubes (BD Vacutainer), and incubated with 2 mL ACK lysing buffer for 10 minutes to lyse the red blood cells. After that, 2% FBS in PBS was added to stop the reaction. Following centrifugation (300 g for 3 minutes at 4° C.) the supernatants were removed. One million cells were blocked by CD16/CD32 Fc blocking antibody (1:100) after incubation for 20 minutes. Then the cells were stained for CD45 (PE-Cy7; 1:100 Biolegend), CD11b (PE; 1:200 Biolegend) and 2 μM Cy5-Apt for 30 minutes at 4° C. Finally, the cells were washed by 2% FBS in PBS and subjected to flow cytometry using standard protocols known in the art.

In the case of “J10: monocyte-targeting DNA aptamer identified by cell-SELEX; sequence in Table 1; Cy5-labeled for flow cytometry (DNA CAATAGAGTCGTACAGGTCGACGCT; Cy5-labeled DNA aptamer, label position not given here) [Aptamer J10]”, the “percentage of Cy5-labeled monocytes” value [1] is reported as “significantly higher than the percentage of Cy5-labeled S2 monocytes”, the “percentage of Cy5-labeled monocytes” value [2] is reported as “significantly higher than the percentage of Cy5-labeled S2 monocytes” and the “detection of Cy5-labeled aptamer in endothelial cells” value [3] is reported as “no detection”. The “binding affinity (flow cytometry)” value [4] was “high binding affinity”, the “binding affinity (flow cytometry)” value [5] was “high binding affinity” and the “in vivo targeting to the injured site (PCR)” value [6] was “confirmed in vivo targeting ability”. The “ex vivo affinity to CD45+ CD11b+ cells” value [7] was “high affinity”.
